Measurements: patent publication US20120083522A1, “MODULATION OF INFLAMMATORY RESPONSES BY FACTOR XI” (Isis Pharmaceuitcals, inc., priority 2009, published 2012)
In the oligonucleotide strings, read from the 5' end, every base follows the letter of its sugar. An asterisk marks phosphorothioate; unmarked linkages are phosphodiester. Other units and linkages are bracketed, terminal groups are in braces. A string of capitals states the bases alone. e = 2'-O-(2-methoxyethyl) (MOE); [5mC] = 5-methylcytosine; d = 2'-deoxy (DNA)

Legend:
Assay type in all cases: cell-based
human Factor XI mRNA [1] = test: Dose-dependent inhibition in HepG2 cells, lipofectin (Example 4); settings: 16 hours
Procedure: (§1) Cells were plated at a density of 10,000 cells per well and transfected using lipofectin reagent with 9.375 nM, 18.75 nM, 37.5 nM and 75 nM concentrations of antisense oligonucleotide, as specified in Table 9. After a treatment period of approximately 16 hours, RNA was isolated from the cells and Factor XI mRNA levels were measured by quantitative real-time PCR. Human Factor XI primer probe set RTS 2966 was used to measure mRNA levels. Factor XI mRNA levels were adjusted according to total RNA content, as measured by RIBOGREEN®. Results are presented as percent inhibition of Factor XI, relative to untreated control cells.

human Factor XI mRNA [2] = test: Antisense inhibition in HepG2 cells by microwalk gapmers, 75 nM, lipofectin (Example 3); settings: HepG2 cells, 75 nM
In short: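 HepG2 cells (10,000 per well) were transfected with 75 nM gapmer using lipofectin and treated for about 24 h. Factor XI mRNA was quantified by real-time PCR, normalized to RiboGreen total RNA and expressed as percent inhibition versus untreated controls.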

human Factor XI mRNA [3] = test: Dose-dependent inhibition in HepG2 cells, electroporation (Example 4); settings: 16 hours
Procedure: as §1, with “The gapmers were also transfected via electroporation and their dose dependent inhibition of human Factor XI mRNA was measured. Cells” for “Cells”, “20,000” for “10,000”, “via electroporation” for “using lipofectin reagent”, “0.7 μM, 2.2 μM, 6.7 μM,” for “9.375 nM, 18.75 nM, 37.5 nM”, “20 μM” for “75 nM”, “10.” for “9.”

[4] = oligonucleotides targeted to nucleobases 1018 to 1042 of SEQ ID NO: 1
[5] = oligonucleotides targeted to nucleobases 1275 to 1318 of SEQ ID NO: 1

Substance | percent inhibition of Factor XI mRNA, relative to untreated control cells (human Factor XI mRNA [1]; 9.375 nM) | percent inhibition of Factor XI mRNA, relative to untreated control cells (human Factor XI mRNA [1]; 18.75 nM) | percent inhibition of Factor XI mRNA, relative to untreated control cells (human Factor XI mRNA [1]; 37.5 nM) | percent inhibition of Factor XI mRNA, relative to untreated control cells (human Factor XI mRNA [1]; 75 nM) | % inhibition of human Factor XI mRNA levels (human Factor XI mRNA [2]; [4]) | percent inhibition of Factor XI mRNA, relative to untreated control cells (human Factor XI mRNA [3]; 0.7 μM) | percent inhibition of Factor XI mRNA, relative to untreated control cells (human Factor XI mRNA [3]; 2.2 μM) | percent inhibition of Factor XI mRNA, relative to untreated control cells (human Factor XI mRNA [3]; 6.7 μM) | percent inhibition of Factor XI mRNA, relative to untreated control cells (human Factor XI mRNA [3]; 20 μM) | % inhibition of human Factor XI mRNA levels (human Factor XI mRNA [2]; oligonucleotides targeted to nucleobases 1062 to 1091 of SEQ ID NO: 1) | % inhibition of human Factor XI mRNA levels (human Factor XI mRNA [2]; [5])
413474 (antisense eA*eG*e[5mC]*eA*eA*d[5mC]*d[5mC]*dG*dG*dG*dA*dT*dG*dA*dT*eG*eA*eG*eT*eG) [compound 413474] | 29% | 44% | 57% | 67% | 93% | 0% | 5% | 52% | 81% | – | –
416842 (antisense eT*eG*eA*eG*eA*dT*dT*d[5mC]*dT*dT*dT*dG*dG*dG*d[5mC]*e[5mC]*eA*eT*eT*e[5mC]) [compound 416842] | 18% | 33% | 62% | 71% | – | 0% | 10% | 66% | 92% | 94% | –
416908 (antisense eG*e[5mC]*eA*dA*d[5mC]*d[5mC]*dG*dG*dG*dA*dT*dG*dA*dT*dG*dA*dG*eT*eG*e[5mC]) [compound 416908] | 36% | 57% | 67% | 76% | 98% | 7% | 58% | 74% | 89% | – | –
416922 (antisense eG*e[5mC]*eA*d[5mC]*dA*dG*dT*dT*dT*d[5mC]*dT*dG*dG*d[5mC]*dA*dG*dG*e[5mC]*e[5mC]*eT) [compound 416922] | 14% | 25% | 49% | 75% | – | 35% | 51% | 77% | 91% | – | 94%
416923 (antisense eT*eG*e[5mC]*dA*d[5mC]*dA*dG*dT*dT*dT*d[5mC]*dT*dG*dG*d[5mC]*dA*dG*eG*e[5mC]*e[5mC]) [compound 416923] | 36% | 47% | 60% | 67% | – | 15% | 30% | 60% | 90% | – | 96%
416924 (antisense eG*eT*eG*d[5mC]*dA*d[5mC]*dA*dG*dT*dT*dT*d[5mC]*dT*dG*dG*d[5mC]*dA*eG*eG*e[5mC]) [compound 416924] | 25% | 38% | 56% | 59% | – | 22% | 40% | 63% | 70% | – | 97%
416926 (antisense eT*eG*eG*dT*dG*d[5mC]*dA*d[5mC]*dA*dG*dT*dT*dT*d[5mC]*dT*dG*dG*e[5mC]*eA*eG) [compound 416926] | 31% | 43% | 63% | 82% | – | 47% | 71% | 91% | 94% | – | 93%
417009 (antisense e[5mC]*eG*dG*d[5mC]*dA*dT*dT*dG*dG*dT*dG*d[5mC]*dA*d[5mC]*dA*eG*eT*eT*eT*e[5mC]) [compound 417009] | – | – | – | – | – | – | – | – | – | – | 85%
417010 (antisense eA*e[5mC]*dG*dG*d[5mC]*dA*dT*dT*dG*dG*dT*dG*d[5mC]*dA*d[5mC]*eA*eG*eT*eT*eT) [compound 417010] | – | – | – | – | – | – | – | – | – | – | 81%
417011 (antisense eG*eA*d[5mC]*dG*dG*d[5mC]*dA*dT*dT*dG*dG*dT*dG*d[5mC]*dA*e[5mC]*eA*eG*eT*eT) [compound 417011] | – | – | – | – | – | – | – | – | – | – | 86%
